Test results taken from publication PMC4049535 (Nature communications, 2013).

How the values were obtained:
Antigen 85C (Ag85C) [1] = target: T1, Antigen 85C (Ag85C) (Mycobacterium tuberculosis, UniProt P9WQN9); experiment: peptide mass fingerprinting of tryptic peptides; format: biochemical
Antigen 85C (Ag85C) [2] = target: T1, Antigen 85C (Ag85C); experiment: resorufin butyrate fluorometric assay dose-dependence; format: biochemical

T1 sequence (P9WQN9 46-340): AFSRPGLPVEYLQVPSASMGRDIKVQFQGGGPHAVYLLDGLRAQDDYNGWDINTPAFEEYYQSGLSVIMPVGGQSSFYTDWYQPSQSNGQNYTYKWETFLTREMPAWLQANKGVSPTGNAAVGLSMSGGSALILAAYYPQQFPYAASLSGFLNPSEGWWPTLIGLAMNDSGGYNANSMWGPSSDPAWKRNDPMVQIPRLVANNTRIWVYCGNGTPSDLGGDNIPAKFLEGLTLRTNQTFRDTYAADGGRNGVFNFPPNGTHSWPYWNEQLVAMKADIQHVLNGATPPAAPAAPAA

## NC(=O)CI [IAA, iodoacetamide]
Antigen 85C (Ag85C) [1]
  peptide mass fingerprinting of tryptic peptides (MALDI-MS); activity loss in res: 51.2 mM

## O=c1c2ccccc2[se]n1-c1ccccc1 [EBS, ebselen]
Antigen 85C (Ag85C) [2]
  Ki: 63 nM
